Laboratory results from ChEMBL document CHEMBL2417523, “One-pot microwave assisted synthesis of new 2-alkoxycarbonylmethylene-4-oxo-1,5-benzo-, naphtho-, and pyridodiazepines and assessment of their cytogenetic activity” (Eur J Med Chem, 2013).
The source made the active and inactive calls. The calls are words filed in the database; no cut-off is given here.

How the values were obtained:
Lymphocyte [1] = assay: Cytoprotective activity against human lymphocytes assessed as reduction in sister chromatid exchange frequency after 72 hrs by fluorescence/Geimsa method; assay type: functional, cell-based
Lymphocyte [2] = assay: Cytoprotective activity against human lymphocytes assessed as reduction in sister chromatid exchange frequency at 10 uM after 72 hrs by fluorescence/Geimsa method; assay type: functional, cell-based
[3] = Cytogenetic activity against human lymphocytes assessed as cytostatic activity measured as proliferative rate index at 10 uM after 72 hrs by fluorescence/Geimsa method; assay type: cell-based; conditions: lymphocyte

SMILES: COC(=O)/C=C1/CC(=O)Nc2ccccc2N1
- Activity (Lymphocyte [1]): Dose-dependent effect

SMILES: COC(=O)/C=C1/CC(=O)Nc2cc(C)c(C)cc2N1
- Activity (Lymphocyte [1]): Dose-dependent effect

SMILES: COC(=O)/C=C1/CC(=O)Nc2cc(Cl)ccc2N1
- Activity (Lymphocyte [1]): Dose-dependent effect
- Activity (Lymphocyte [2]): Active
- Activity [3]: Toxic
